Assays:
hOR17-4 [1] = molecular target: T1, hOR17-4 (Homo sapiens, UniProt P34982); conditions: cited from earlier work
T1 sequence (P34982 1-312): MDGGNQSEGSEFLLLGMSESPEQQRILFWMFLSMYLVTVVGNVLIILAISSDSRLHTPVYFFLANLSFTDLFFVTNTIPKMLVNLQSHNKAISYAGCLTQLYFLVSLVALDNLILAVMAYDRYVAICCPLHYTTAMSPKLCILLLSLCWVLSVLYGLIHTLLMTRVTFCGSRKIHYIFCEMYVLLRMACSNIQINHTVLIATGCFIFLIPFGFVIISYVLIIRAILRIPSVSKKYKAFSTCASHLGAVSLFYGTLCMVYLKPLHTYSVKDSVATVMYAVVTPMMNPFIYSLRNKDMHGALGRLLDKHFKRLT

hOR17-4 [2] = molecular target: T1, hOR17-4; assay: Surface plasmon resonance (Biacore A100) odorant binding assay; design: made in house; host or cells: cell-free expression, wheat germ extract (Roche RTS); uncleaned lysate supernatant captured on the chip; conditions: SPR
Method: All odorant binding experiments were performed on a Biacore™ A100 (GE Healthcare, Uppsala, Sweden) at 25° C. A Biacore™ A100 was used in the present studies since it has a parallel flow configuration thus allowing assay development e.g. solubilization conditions to be tested and optimized in parallel in a multiplexed format. The sensor chip CM4, amine coupling kit, HBS (10 mM Hepes, 0.15 M NaCl, pH 7.4) and PBS were from (GE Healthcare, Uppsala, Sweden).
The anti Rho-tag antibody 1D4 at 40 μg/ml in 10 mM sodium acetate pH 5.5 was immobilized onto a series S sensor chip using standard amine-coupling chemistry in HBS running buffer at 10 μl/min (33). The amount of coupled 1D4 was about 5500 RU. Control surfaces were prepared similarly without protein derivatization and utilized as a reference surfaces for compound binding experiments.
Cell-free lysate containing the expressed olfactory receptor was centrifuged for […] at 14000×g at 4° C., to remove larger particles. The supernatant, containing about 0.6 mg/ml olfactory receptor, was immediately captured on the surface plasmon resonance (SPR) chip using PBS, 0.1% CHAPS, 0.02% CHS, 0.1% DDM and 1% (v/v) ethanol as running buffer at 10 μl/min.
Fresh odorant lilial solutions were made as follows. […]

[3] = Odorant solubility in SPR running buffer, inferred from the binding response; assay type: physicochemical
Method: Fresh odorant lilial solutions were made as follows. Pure odorant was diluted in ethanol to 0.5 M. This solution was diluted 67 times in PBS, 0.1% CHAPS, 0.02% CHS, 0.1% DDM to obtain a 7.5 mM odorant solution in running buffer with 1% (v/v) ethanol. Further dilutions were made in running buffer containing 1% (v/v) ethanol to obtain a concentration series of 5 μM, 10 μM, 20 μM and 40 μM of odorant lilial.
For the actual binding measurements, the odorant concentration series were injected from low to high concentration over control and derivatized surfaces for 30 seconds with a flow rate of 60 μl/min. Zero concentration blank buffer cycles were included as negative control samples. Solvent correction procedures were included to compensate for any DMSO related bulk refractive index variations and performed as described previously^(34). Non-specific binding effects to sensor surface CM4 were absent for all analyses reported.

binding constant (approximately estimated) (hOR17-4 [2]; exact value could not be determined because of low solubility): within micromolar range | solubility at high concentrations ([3]; SPR running buffer): very low | concentration above which the response does not reach equilibrium (odorant starts to fall out of solution) ([3]; running buffer PBS, 0.1% CHAPS, 0.02% CHS, 0.1% DDM, 1% (v/v) ethanol): above 10 μM
Structure (SMILES): CC(C=O)Cc1ccc(C(C)(C)C)cc1 (stereo not drawn) [lilial]
agonist activity at hOR17-4 (hOR17-4 [1]; in vivo studies): known agonist | affinity constant reported in vivo (hOR17-4 [1]; in vivo): micromolar range | dose response binding (RU) (hOR17-4 [2]; lilial 5-40 μM, 25° C., receptor from cell-free production captured via 1D4 antibody): binding response increases by increasing odorant concentration
